Where two headings read alike, the source gives them in different places.
Legend:
normal mice = settings: low dose; non-patent document 11; cited from earlier work
[1] = Evaluation of organ selectivity (non-binding drug concentration in liver and pancreas after oral administration); type: in vivo, normal mice (C57BL/6j mice); settings: mice, 150 minutes after administration; for concentration at 150 min: C57BL/6j, mouse, dose 30 mg/kg
Description: A test compound suspended in 10% (v/v) Gelucire 44/14 (GATTEFOSSE) was orally administered to normal mice (C57BL/6j mice, CLEA Japan, Inc.). The percentages of drugs that had not bound to proteins in the liver and the pancreas, which had been obtained by the in vitro test, were […] the total concentrations of the drugs in the liver and the pancreas obtained 150 minutes after administration of the drugs, so as to calculate the non-binding concentration of the drug in each case. The ratio of the non-binding concentration of the drug in the […] was calculated, and thus, liver selectivity was evaluated. As a comparative compound, PSN-GK1 described in non-patent document 11 (corresponding to Example 94 of patent document 2) was produced according to the method described in patent document 2, and the produced comparative compound was then evaluated in the same manner as described above (in the table, the comparative compound is indicated as PSN-GK1).

[2] = as above; type: in vivo, normal mice (C57BL/6j mice); settings: mice, 150 minutes after administration
[3] = tested on: normal mice (C57BL/6j mice); assay: Transition in blood glucose levels after single administration of test compound to normal mice; type: in vivo; settings: 30 mg/kg oral, 1, 2, 4 and 6 hours after administration, FIG. 2
Description: A test compound (30 mg/kg, Example 5) suspended in 10% (v/v) Gelucire 44/14 (GATTEFOSSE) was orally administered to normal mice (C57BL/6j mice, CLEA Japan, Inc.). The blood glucose level was measured using an automatic blood glucose level measurement apparatus (Medisafe, TERUMO), before administration of the test compound, and 1, 2, 4, and 6 hours after administration of the test compound. Thus, the hypoglycemic action of the test compound was evaluated.

[4] = target: T1, GST-GK derived from human liver GK (Homo sapiens, UniProt P35557); assay: In vitro GK activating action measurement test; type: biochemical; settings: 10 min; test compound 1 μmol/L, glucose 2.5 mmol/L, 25° C.; read-out: GK activation rate (%)
T1 construct: made in house; host or cells: Escherichia coli DH5α
T1 sequence (P35557 1-466 isoform P35557-2): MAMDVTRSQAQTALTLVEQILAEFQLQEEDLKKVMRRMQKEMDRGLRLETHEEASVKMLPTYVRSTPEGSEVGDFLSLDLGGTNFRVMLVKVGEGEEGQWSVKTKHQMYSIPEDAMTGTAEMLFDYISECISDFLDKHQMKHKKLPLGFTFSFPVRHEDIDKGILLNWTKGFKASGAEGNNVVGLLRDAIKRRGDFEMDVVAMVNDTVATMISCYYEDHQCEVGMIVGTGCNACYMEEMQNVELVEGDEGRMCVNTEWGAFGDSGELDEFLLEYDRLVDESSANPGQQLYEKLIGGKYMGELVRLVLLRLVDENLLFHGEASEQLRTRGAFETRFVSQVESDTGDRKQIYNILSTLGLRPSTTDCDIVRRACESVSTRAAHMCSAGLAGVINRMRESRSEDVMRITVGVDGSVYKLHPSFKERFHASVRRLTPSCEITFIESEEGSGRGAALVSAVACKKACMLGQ
Excerpt: cDNA (GenBank Accession No. NM_033507, human glucokinase, variant 2) encoding human liver-type GK polypeptide was cloned by performing a polymerase chain reaction (hereinafter referred to as “PCR”) using a human liver cDNA library (Human liver QUICK-Clone cDNA, TAKARA BIO INC.), and the thus cloned cDNA was then introduced into an expression vector (pGEX-3X, GE Healthcare Japan) for glutathione S transferase (hereinafter referred to as GST) fusion proteins. The resulting vector was introduced into Escherichia coli (Competent high DH5α, Toyobo Co., Ltd.), and the transformed Escherichia coli was then cultured at 37° C. Thereafter, Isopropyl β-D-1-thiogalactopyranoside (final concentration: 1 mmol/L, Sigma Aldrich Japan) was added to the culture, and the obtained mixture was then cultured at 30° C. for 3 hours. Thereafter, a cell mass was recovered. The recovered cell mass was subjected to freezing-and-thawing, and the resulting cell mass was then suspended in Triton-X that had been added in a final concentration of 1% to a phosphate buffer, followed by disintegration with an ultrasonic disintegrator. The homogenate was centrifuged at 33,200 rpm at 4° C. for 1 hour. Thereafter, the supernatant was recovered, and a GST-GK fusion protein was then purified using a glutathione column (GSTrap FF, GE Healthcare Japan). The obtained GST-GK fusion protein was divided into some portions each having a small volume, and the thus divided proteins were then preserved at −80° C.
A GK assay was carried out at 25° C. at a final incubation volume of 100 μL using a flat-bottom 96-well assay plate. An assay buffer comprised 25 mmol/L Hepes buffer (pH 7.1), 25 mmol/L KCl, 2.5 mmol/L or 10 mmol/L D-glucose, 5 mmol/L ATP, 1 mmol/L nicotinamide adenine dinucleotide phosphate (abbreviated as NADP), 2 mmol/L MgCl2, 1 mmol/L dithiothreitol (DTT), 2 units/mL glucose-6 phosphate dehydrogenase (G6PDH), and 1 μg/mL GST-GK derived from human liver GK. ATP, G6PDH, and NADP were purchased from Roche Diagnostics. […] The thus mixed solution was preincubated in an incubator in which the temperature was controlled at 25° C. for 15 minutes. Subsequently, the reaction was initiated by adding 10 μL of the GST-GK solution to the reaction mixture, resulting in a final concentration of 0.1 μg/mL. After initiation of the reaction, an increase in the optical concentration at 340 nm (OD340) was monitored with a microplate spectrophotometer (Varsamax, Molecular Devices Japan K. K.) every 10 seconds over an incubation period of 10 minutes. An inclination of the OD340 increase was defined as raw data. The GK activating rate was indicated as a numerical value obtained from the expression: (Inclination of OD340 increase by addition of the test compound)/(inclination of OD340 increase without addition of the test compound). The results of the GK activating rate obtained at a test compound concentration of 1 μmol/L under the condition of a glucose concentration of 2.5 mmol/L are shown in the following table 2.

[5] = tested on: normal mice (C57BL/6j mice); assay: Oral glucose tolerance test with normal mice after single administration of test compound; type: in vivo; settings: 30 mg/kg oral, 2 g/kg glucose oral 30 minutes later, FIG. 1
Description: The test compound (Example 5) (30 mg/kg) suspended in 10%(v/v) Gelucire44/14 (GATTEFOSSE) was orally administered to normal mice (C57BL/6j mice, CLEA Japan, Inc.). Thirty minutes later, 2 g/kg glucose was orally administered to the mice. The blood glucose level was measured using an automatic blood glucose level measurement apparatus (Medisafe, TERUMO), before administration of the test compound, 25 minutes after administration of the test compound, and 15, 30, 60, and 120 minutes after administration of glucose. Thus, the action of the test compound to lower blood glucose level was evaluated.

O=C(Nc1ncc(F)s1)[C@H](CC1CCOCC1)c1ccc(S(=O)(=O)C2CC2)cc1 [PSN-GK1, reference compound]
hypoglycemic action on normal mice (normal mice): has a hypoglycemic action on normal mice
Non-binding concentration (ng/mL) Liver ([1]; dose 1 mg/kg): 0.56 ng/mL
Non-binding concentration (ng/mL) Pancreas ([1]; dose 1 mg/kg): 0.58 ng/mL
Non-binding concentration (ng/mL) Liver ([1]; dose 3 mg/kg): 1.4 ng/mL
Non-binding concentration (ng/mL) Pancreas ([1]; dose 3 mg/kg): 1.7 ng/mL
Selectivity Liver/pancreas ([1]; dose 3 mg/kg): 0.8
Non-binding concentration (ng/mL) Liver ([1]; dose 10 mg/kg): 7.4 ng/mL
Non-binding concentration (ng/mL) Pancreas ([1]; dose 10 mg/kg): 6.0 ng/mL
Selectivity Liver/pancreas ([2]; dose 1 mg/kg): 1.0
Selectivity Liver/pancreas ([2]; dose 10 mg/kg): 1.2

CCNC(=O)N1CC[C@H](C[C@@H](C(=O)Nc2ncc(F)s2)c2ccc(S(=O)(=O)C3CC3)cc2)C1 [Example 5, (S)-3-((R)-2-(4-(cyclopropylsulfonyl)phenyl)-3-((5-fluorothiazol-2-yl)amino)-3-oxopropyl)-N-ethylpyrrolidine-1-carboxamide]
concentration at 150 min ([1]; liver, read-out: Non-binding concentration (ng/mL) Liver): 47 ng/mL
concentration at 150 min ([1]; pancreas, read-out: Non-binding concentration (ng/mL) Pancreas): 1.8 ng/mL
blood glucose level after single administration versus solvent alone [3]: almost equal to the blood glucose level of the mice orally administered with the solvent alone
activity at 1 µM [4]: 561%
selectivity ratio at 150 min ([2]; C57BL/6j, mouse, liver and pancreas, dose 30 mg/kg): 27
blood glucose level in oral glucose tolerance test versus solvent alone [5]: lower than that of the mice orally administered with the solvent alone

From patent publication US9242978B2, “Phenylacetamide compound and pharmaceutical containing same” (KOWA COMPANY, LTD., priority 2012, dated 2016)
